Measurements as given in patent US7358249B2, “Heterocyclic compounds having inhibitory activity against HIV integrase” (Shionogi & Co., Ltd., priority 2002, dated 2008).
Values joined by “and” are separate entries in the source; they are usually repeats but may differ in a detail not shown here. Identical values can stand only once.

Tests used:
HIV integrase = HIV integrase (Human immunodeficiency virus type 1 group M subtype B, UniProt P04585); experiment: integrase inhibition assay (microtiter plate, substrate DNA / target DNA); type: biochemical; details: integrase 30 pmol, incubated at 30° C. for 1 hour, OD at 405 nm; concentration at percent inhibition 50%; read-out: MIA, IC50 (ug/ml) (converted)
Method: The inhibitory activities against integrase of the presnt compounds were determined by the assay described below.
(1) Preparation of DNA Solutions
Substrate DNA and target DNA synthesized by Amersham Pharmacia Biotech, which sequences were indicated below, were dissolved in KTE buffer (composition: 100 mM KCl, 1 mM EDTA, 10 mM Tris-HCl (pH 7.6)) at a concentration of 2 pmol/μl and 5 pmol/μl, respectively. The DNA solutions were heated and then slowly cooled so that they were annealed with each complement.
(Sequence of Substrate DNA)
(2) Calculations of the percent inhibitions (IC50 values of test compounds)
Streptavidin, obtained from Vector Laboratories, was dissolved in 0.1 M carbonate buffer (composition: 90 mM Na2CO3, 10 mM NaHCO3) at a concentration of 40 μg/ml. After coating each well of microtiter plates (obtained from NUNC) with 50 μl of the above solution at 4° C. over night, each well was washed twice with PBS (composition: […], 0.27 mM KCl, 0.43 mM Na2HPO4, 0.14 mM KH2PO4) and blocked with 300 μl of 1% skim milk in PBS for 30 min. Additionally, each well was washed twice with PBS and added with 50 μl of the substrate DNA solution (2 pmol/μl). The microtiter plates were kept at room temperature for 30 min. Then, each well was washed twice with PBS and once with H2O.
Subsequently, to the each well prepared above were added 45 μl of the reaction buffer prepared from 12 μl of the buffer (composition: 150 mM MOPS (pH 7.2), 75 mM MnCl2, 50 mM 2-mercaptoethanol, 25% glycerol, 500 μg/ml bovine serum albumin-fraction V), 1 μl of target DNA (5 pmol/μ), and 32 μl of the distilled water. Additionally, 6 μl of either a test compound in DMSO or DMSO for positive control (PC) was mixed with the above reaction buffer, then 9 μl of an integrase solution (30 pmol) was added thereto and the mixture was mixed well. To the well of negative control (NC) was added 9 μl of the integrase dilution buffer (composition: 20 mM MOPS (pH7.2), 400 mM potassium glutamate, 1 mM EDTA, 0.1% NP-40, 20% glycerol, 1 mM DTT, 4 M urea).
The microtiter plates were incubated at 30° C. for 1 hour. The reaction solution was removed and each well was washed twice with PBS. Subsequently, each well of the microtiter plates was filled with 100 μl of anti-digoxigenin antibody labeled with alkaline phosphatase (Sheep Fab fragment: obtained from Boehringer) and incubated at 30° C. for 1 hour. Then, each well was washed twice with 0.05% Tween20 in PBS and once with PBS. Next, 150 μl of the Alkaline phosphatase reaction buffer (composition: 10 mM p-Nitrophenylphosphate (obtained from Vector Laboratories), 5 mM MgCl2, 100 mM NaCl, 100 mM Tris-HCl (pH 9.5)) was added to each well. The microtiter plates were incubated at 30° C. for 2 hours and the reaction was terminated by the addition of 50 μl of 1 N NaOH solution. The optical density (OD) at 405 nm of each well was measured and the percent inhibition was determined by the following expression. The percent inhibition (%)=100[1−{(C abs.−NC abs.)/(PC abs.−NC abs.)}]
C abs.; the OD of the well of the test compound
NC abs.: the OD of the negative control (NC)
PC abs.: the OD of the positive control (PC)
When the percent inhibition (%) is X % at a concentration of x μg/ml and the percent inhibition (%) is Y % at a concentration of y μg/ml, one of which is more than 50% and the other is less than 50%, IC50 can be determined by the following expression. IC50 (μg/ml)=x−{(X−50)(x−y)/(X−Y)}
Compound No. in the Table 1 is the same as compound No. of the above Examples.

| SMILES | IC50 (HIV integrase) [nM] | melting point |
| --- | --- | --- |
| COC(=O)c1cc(N)c2cc(Cc3ccc(F)cc3)cnc2c1O [Compound I-8, 5-Amino-3-(4-fluorobenzyl)-8-hydroxyquinoline-7-carboxylic acid methyl ester] | 398 | 114 to 115 °C |
| CCOC(=O)Nc1cc(C(=O)OC)c(O)c2ncc(Cc3ccc(F)cc3)cc12 [Compound I-9, 5-Ethoxycarbonylamino-3-(4-fluorobenzyl)-8-hydroxyquinoline-7-carboxylic acid methyl ester] | 703 | 205 to 206 °C |
| COC(=O)c1cc(NC(C)=O)c2cc(Cc3ccc(F)cc3)cnc2c1O [Compound I-10, 5-Acetylamino-3-(4-fluorobenzyl)-8-hydroxyquinoline-7-carboxylic acid methylester] | 1300 | 243 to 245 °C |
| COC(=O)c1cc(NS(C)(=O)=O)c2cc(Cc3ccc(F)cc3)cnc2c1O [Compound I-12, 3-(4-Fluorobenzyl)-8-hydroxy-5-methanesulfonylaminoquinoline-7-carboxylic acid methyl ester] | 1240 | 189.5 to 190.5 °C |
| COC(=O)c1cc(NC(C)C)c2cc(Cc3ccc(F)cc3)cnc2c1O [Compound I-14, 3-(4-Fluorobenzyl)-8-hydroxy-5-isopropylaminoquinoline-7-carboxylic acid methylester] | 1190 | 121 to 122 °C |
| COC(=O)c1cc(NC2CCCCC2)c2cc(Cc3ccc(F)cc3)cnc2c1O [Compound I-15, 5-Cyclohexylamino-3-(4-fluorobenzyl)-8-hydroxyquinoline-7-carboxylic acid methylester] | 1620 | 75.5 to 77.5 °C |
| COC(=O)c1cc(N(C)C)c2cc(Cc3ccc(F)cc3)cnc2c1O [Compound I-16, 5-Dimethylamino-3-(4-fluorobenzyl)-8-hydroxyquinoline-7-carboxylic acid methylester] | 451 | 62 to 63 °C |
| CN=C(Nc1cc(C(=O)OC)c(O)c2ncc(Cc3ccc(F)cc3)cc12)SC [Compound I-19, 5-(2,3-Dimethylisothioureido)-3-(4-fluorobenzyl)-8-hydroxyquinoline-7-carboxylic acid methylester] | 1040 | 198.5 to 199.5 °C |
| COC(=O)c1cc(C(=O)N2CCN(C)CC2)c2cc(Cc3ccc(F)cc3)cnc2c1O [Compound I-48, 3-(4-Fluorobenzyl)-8-hydroxy-5-(4-methyl-piperadine-1-carbonyl)quinoline-7-carboxylic acid methyl ester] | 800 | 184 to 185 °C |
| COC(=O)c1cc(C(=O)NCC(=O)N(C)C)c2cc(Cc3ccc(F)cc3)cnc2c1O [Compound I-64, 5-(Dimethylcarbamoylmethylcarbamoyl)-3-(4-fluorobenzyl)-8-hydroxyquinoline-7-carboxylic acid methyl ester] | 979 | 198 to 199 °C |
| COC(=O)c1cc(CO)c2cc(Cc3ccc(F)cc3)cnc2c1O [Compound I-117, 3-(4-Fluorobenzyl)-8-hydroxy-5-hydroxymethylquinoline-7-carboxylic acid methyl ester] | 208 | 142 to 143 °C |
| COC(=O)c1cc(-c2n[nH]c(C)n2)c2cc(Cc3ccc(F)cc3)cnc2c1O [Compound I-134, 3-(4-Fluorobenzyl)-8-hydroxy-5-(5-methyl-1H-[1,2,4]triazole-3-yl)quinoline-7-carboxylic acid methyl ester] | 357 | 200 to 202 °C and 195 to 196 °C |
| COCCC(=O)Nc1cc(C(=O)OC)c(O)c2ncc(Cc3ccc(F)cc3)cc12 [Compound I-182, 3-(4-Fluorobenzyl)-8-hydroxy-5-(3-methoxy-propionylamino)-quinoline-7-carboxylic acid methyl ester] | 461 | 190 to 192 °C |
| COC(=O)c1cc(N2CCOC2=O)c2cc(Cc3ccc(F)cc3)cnc2c1O [Compound I-183, 3-(4-Fluorobenzyl)-8-hydroxy-5-(2-oxo-oxazolidine-3-yl)-quinoline-7-carboxylic acid methyl ester] | 353 | 152 to 153 °C |
